Four compounds from patent publication US20190142893A1, “Electron, Radical, or Reactive Oxygen Species-Scavenging Agent Based Therapy of Inborn Errors of Fatty Acid Oxidation and Oxidative Phosphorylation” (University of Pittsburgh- Of the Commonwealth System of …, priority 2016, published 2019) can be followed below.

Assay type in all cases: cell-based, human
The subject of experiment [1] is FAO deficient fibroblasts. Kind of experiment: Superoxide production (MitoSOX dye) in FAO deficient fibroblasts. To be noted: FAO deficient fibroblasts cultured in absence of glucose 48-72 h. The method, then: FAO deficient fibroblasts were cultured in the absence of glucose for 48-72 h to shift to fatty acids as the energy source. Oxygen consumption rate (OCR) was monitored by a Seahorse XF analyzer (See FIG. 23). Mitochondrial mass was examined by MitoTracker Green and ROS generation by MitoSOX dye. Protein immunocontent was evaluated by western blotting. […] Testing of XJB-5-131 was conducted essentially as described for JP4-039.
(§1) Cell suspension containing 1×10^5 cells per mL were incubated for 25 min at 37° C. with 150 nM Mitotracker Green, Invitrogen, Grand Island, N.Y., for mitochondrial mass evaluation or for 15 min at 37° C. with 5 μM MitoSOX Red, Invitrogen, Grand Island, N.Y., for superoxide production measurement. After incubation, 10,000 cells samples were analyzed in a Becton Dickinson FACSAria II flow cytometer, BD Biosciences, San Jose, Calif.

The subject of experiment [2] is VLCAD deficient fibroblasts (Fb671, Fb773, Fb834). Kind of experiment: Oxygen consumption rate (Seahorse analyzer) in VLCAD deficient fibroblasts. To be noted: FB671, media without glucose, FIG. 25. The method, then: Oxygen consumption assay: Fibroblasts controls and from patients with VLCAD deficiency were cultivated in normal media or in the absence of glucose for 72 hours. The oxygen consumption was monitored by a Seahorse XFe96 Extracellular Flux Analyzer (Seahorse Bioscience, Billerica, Mass.).
(§2) Cells were grown in Dulbecco's Modified Eagle Medium (DMEM), Corning Life Sciences, Manassas, Va., containing high glucose levels or in DMEM devoid of glucose for 48-72 h. Both media were supplemented with glutamine, 10% fetal bovine serum, 4 mM glutamine, 100 IU penicillin and 100 μg/mL streptomycin, Corning Life Sciences, Manassas, Va.
(§3) Cells were treated with different compounds in different concentrations 24 or 48 h before the assays. The compounds used were N-acetylcysteine (1 mM), bezafibrate (600 μM), resveratrol (75 μM), MiloQ (200 nM), trolox (1 mM) and JP4-039 (40 and 200 nM).
Oxygen consumption rate (OCR) was measured with a Seahorse XF^c96 Extracellular Flux Analyzer (Seahorse Bioscience, Billerica, Mass.). The apparatus contains a fluorophore that is sensitive to changes in oxygen concentration, which enables it to accurately measure the rate at which cytochrome c oxidase (complex IV) reduces one O2 molecule to two H2O molecules during OXPHOS. Cells were seeded in 96-well Seahorse tissue culture microplates in growth media at a density of 80,000 cells per well. To ensure equal cell numbers, cells were seeded in cell culture plates pre-coated with Cell-Tak (BD Biosciences, San Jose, Calif.). All cell lines were measured with four to six wells per cell line. Then, the entire experiments were repeated. Before running the Seahorse assay, cells were incubated for 1 h without CO2 in unbuffered DMEM. Initial OCR was measured to establish a baseline (basal respiration). Reserve capacity was also determined after the injection of 300 nM carbonyl cyanide 4-(trifluoromethoxy) phenylhydrazone (FCCP), Seahorse XF Cell Mito Stress Test Kit, Santa Clara, Calif. Data were reported in pmol/min for OCR.

Experiment [3] concerns VLCAD deficient fibroblasts (Fb671, Fb773, Fb834, Fb833). Kind of experiment: Superoxide production (MitoSOX Red, flow cytometry) in VLCAD deficient fibroblasts. To be noted: patient cells, media without glucose 48 h, after 24 h of treatment; FIGS. 27 and 28. The method, then: ROS generation: control and patient fibroblasts were cultivated in normal media or without glucose for 48 hours, then incubated for 15 min with MitoSox Red (Life Technologies). Fluorescence was evaluated by flow cytometry.
as §2, §3, §1
A general note: In flow cytometry, cells or beads pass a laser one at a time.

Consider `CC(C)C[C@@H](/C=C/[C@H](Cc1ccccc1)C(=O)N1CCC[C@H]1C(=O)N[C@H](C(=O)N[C@@H](CCCNC(=O)OCc1ccccc1)C(=O)NC1CC(C)(C)N([O])C(C)(C)C1)C(C)C)NC(=O)OC(C)(C)C` [XJB-5-131], for which, in experiment [1], the Increased superoxide production result is “prevented”. Also, the “Reserved capacity (oxygen consumption)” value in experiment [2] (40 nM) and in experiment [2] (200 nM) was “improves” throughout. For the same compound, the “Basal respiration (oxygen consumption)” value in experiment [2] (200 nM) is listed as “improved”. Take `Oc1ccc(C=Cc2cc(O)cc(O)c2)cc1` [resveratrol]: in experiment [3], the “Superoxide generation (increased levels in VLCAD deficient cells)” value is listed as “JP4-039 was the only antioxidant able to decrease superoxide generation”. Take `CC(=O)N[C@@H](CS)C(=O)O` [N-acetylcysteine]: the “Superoxide generation (increased levels in VLCAD deficient cells)” value in experiment [3] is “JP4-039 was the only antioxidant able to decrease superoxide generation”. Still for that read-out and setting: the result for `COC1=C(OC)C(=O)C(CCCCCCCCCC[P+](c2ccccc2)(c2ccccc2)c2ccccc2)=C(C)C1=O` [MitoQ] reads “JP4-039 was the only antioxidant able to decrease superoxide generation”.
